Experimental data taken from publication PMC12592418, “Therapeutic potential of red bean (phaseolus vulgaris) peptides: anticancer, antihypertension, and antioxidant activities” (Scientific Reports, 2025).
No end group written: not given here.

How the values were obtained:
HepG2 cells = test: MTT cell viability assay, HepG2; type: cell-based, human; conditions: synthetic peptide 100 µg/ml, 24 h, mean ± SD, n = 3
Experimental: (§1) CaCO2, HepG2, MCF-7, NCI-H460, SiHa, SW620, and Vero cells were obtained from the American Type Culture Collection (ATCC, Manassas, VA, USA). Cells were cultured in Dulbecco’s Modified Eagle’s Medium (DMEM; PAA, Pasching, Austria), supplemented with 10% (v/v) fetal bovine serum (Gibco, South America), 10 mM HEPES (HyClone, Utah, USA), 2 mM L-glutamine, and 100 U/mL penicillin and 100 µg/mL streptomycin. Cultures were maintained at 37 °C in a humidified atmosphere containing 5% CO₂.
(§2) The anticancer activity of protein hydrolysates and synthetic peptides against CaCO2, HepG2, MCF-7, NCI-H460, SiHa, SW620, and Vero cells were evaluated using the MTT assay. Cells were seeded into 96-well plates (Nunc™, Roskilde, Denmark) at a density of 2 × 10⁴ cells per well, and allowed to adhere. Following seeding, cells were treated with 100 µg/mL of protein hydrolysates or synthetic peptides for 24 h, while untreated cells served as controls. After 24 h, 20 µL of MTT solution (5 mg/mL; Sigma, St. Louis, MO, USA) was added to each well and incubated for an additional 3 h. The supernatant was then removed, and 100 µL of DMSO was added to each well to dissolve the formazan crystals. Optical density (OD) was measured at 540 nm using a microplate reader (Rayto RT-2100 C, China). Cell viability was calculated using the equation: (OD of treated cells/OD of untreated cells) × 100.
(§3) The IC50 values were calculated from a fitted semi-log response curve, plotting cell viability percentages against concentration. These values were determined using the AAT-Bioquest IC50 calculator (https://www.aatbio.com/tools/ic50-calculator).

CaCO2 cells = test: MTT cell viability assay, CaCO2; type: cell-based, human; conditions: synthetic peptide 100 µg/ml, 24 h, mean ± SD, n = 3
Experimental: as §1, §2, §3

[1] = DPPH radical scavenging assay; type: physicochemical; conditions: peptide 100 µg/ml, 0.1 mM DPPH, 30 min in the dark, room temperature, absorbance 517 nm, mean ± SD, n = 3
Experimental: The DPPH radical scavenging activity of the sample was evaluated following the protocol by Muangrod et al.[48] with slight modifications. Briefly, 190 µL of 0.1 mM DPPH was mixed with 10 µL of the sample or standard ascorbic acid in each well and incubated at room temperature in the dark for 30 min. The absorbance of the mixture was measured at 517 nm using a microplate reader (Rayto RT-2100 C, China). Ascorbic acid was used as the standard. Results were expressed as micrograms ascorbic acid equivalent (µg AAE g^−1).

[2] = ABTS radical scavenging assay; type: physicochemical; conditions: peptide 100 µg/ml, 5 min in the dark, absorbance 750 nm, mean ± SD, n = 3
Experimental: Radical scavenging antioxidant activity was determined according to the ABTS radical scavenging activity following the method described by Re et al.[46] with slight modifications. Briefly, the solution of ABTS radical was prepared from the reaction between 7 mM ABTS (2,2-azino-bis (3-ethylbenzothiazoline-6-sulphonic acid) diammonium salt) and 2.45 mM ammonium persulphate. The resulting ABTS solution was diluted with distilled water to achieve an optical density of 0.7 at 750 nm. Then, a sample or standard of 10 µL was mixed with 190 µL of ABTS solution and incubated for 5 min in the dark. The absorbance was measured at 750 nm by a microplate reader (Rayto RT-2100 C, China). Ascorbic acid was used as the standard.

NCI-H460 cells = test: MTT cell viability assay, NCI-H460; type: cell-based, human; conditions: synthetic peptide 100 µg/ml, 24 h, mean ± SD
Experimental: as §1, §2, §3

MCF-7 cells = test: MTT cell viability assay, MCF-7; type: cell-based, human; conditions: synthetic peptide 100 µg/ml, 24 h, mean ± SD
Experimental: as §1, §2, §3

SiHa cells = test: MTT cell viability assay, SiHa; type: cell-based, human; conditions: synthetic peptide 100 µg/ml, 24 h, mean ± SD, n = 3
Experimental: as §1, §2, §3

[3] = system: angiotensin-converting enzyme (ACE); test: ACE inhibitory activity assay (HHL substrate); type: biochemical; conditions: peptide 100 µg/ml, ACE 0.2 U/mL, 5 mM HHL, phosphate buffer pH 6.8, 37 °C, mean ± SD, n = 3
Experimental: The method utilized here is a spectrophotometric method based on the commonly used method introduced by Cushman and Cheung (1971)[45]. The 5 ul of sample was preincubated with 45 ul of ACE enzyme (0.2 U/mL) in 100 mM Phosphate buffer (pH 6.8) and incubated for 10 min at 37 °C. Enzyme activity was assayed by monitoring the hydrolysis of hippuryl-L-histidyl-L-leucine (HHL). After adding 50 µL of a 5 mM HHL substrate solution, the increase in absorbance at 405 nm was measured every minute for 15 min at 37 °C using a 96-well microplate reader. The initial velocity was determined from the linear portion of the curve, and the inhibitory activity was expressed as a percentage calculated using the following equation:
% inhibition = (1-(B-b)/(A-a)) x 100,
where A is an initial velocity of the control reaction with enzyme (control), a is an initial velocity of the control reaction without enzyme (control blank), B is an initial velocity of the enzyme reaction with sample and b is an initial velocity of the reaction with sample but without enzyme (sample blank).

Vero cells = test: MTT cell viability assay, Vero; type: cell-based, monkey; conditions: synthetic peptide 100 µg/ml, 24 h, mean ± SD, n = 3
Experimental: as §1, §2, §3

SW620 cells = test: MTT cell viability assay, SW620; type: cell-based, human; conditions: synthetic peptide 100 µg/ml, 24 h, mean ± SD
Experimental: as §1, §2, §3

[4] = FRAP ferric ion-reducing antioxidant power assay; type: physicochemical; conditions: peptide 100 µg/ml, 30 min in the dark, absorbance 593 nm, mean ± SD, n = 3
Experimental: The ferric ion-reducing antioxidant power assay was analyzed according to the method by Rumpf et al.[47] with minor modifications. Briefly, the FRAP reagent was prepared from 300 mM sodium acetate (pH 3.6) and 10 mM TPTZ (2,4,6-tris (2-pyridyl)-s-triazine) in 40 mM HCl and 20 mM ferric chloride at the ratio of 10:1:1, respectively. Then, a 10 µL aliquot of the sample or standard was mixed with 190 µL of the FRAP reagent before incubating in the dark for 30 min. The absorbance was measured at 593 nm using a microplate reader (Rayto RT-2100 C, China). Ascorbic acid was used as the standard. Results were expressed as micrograms of ascorbic acid equivalent per gram (µg AAE g^−1).

[5] = molecular target: T1, angiotensin-converting enzyme (ACE) (UniProt P12822)
T1 sequence (P12822 whole entry, species assumed, looked up): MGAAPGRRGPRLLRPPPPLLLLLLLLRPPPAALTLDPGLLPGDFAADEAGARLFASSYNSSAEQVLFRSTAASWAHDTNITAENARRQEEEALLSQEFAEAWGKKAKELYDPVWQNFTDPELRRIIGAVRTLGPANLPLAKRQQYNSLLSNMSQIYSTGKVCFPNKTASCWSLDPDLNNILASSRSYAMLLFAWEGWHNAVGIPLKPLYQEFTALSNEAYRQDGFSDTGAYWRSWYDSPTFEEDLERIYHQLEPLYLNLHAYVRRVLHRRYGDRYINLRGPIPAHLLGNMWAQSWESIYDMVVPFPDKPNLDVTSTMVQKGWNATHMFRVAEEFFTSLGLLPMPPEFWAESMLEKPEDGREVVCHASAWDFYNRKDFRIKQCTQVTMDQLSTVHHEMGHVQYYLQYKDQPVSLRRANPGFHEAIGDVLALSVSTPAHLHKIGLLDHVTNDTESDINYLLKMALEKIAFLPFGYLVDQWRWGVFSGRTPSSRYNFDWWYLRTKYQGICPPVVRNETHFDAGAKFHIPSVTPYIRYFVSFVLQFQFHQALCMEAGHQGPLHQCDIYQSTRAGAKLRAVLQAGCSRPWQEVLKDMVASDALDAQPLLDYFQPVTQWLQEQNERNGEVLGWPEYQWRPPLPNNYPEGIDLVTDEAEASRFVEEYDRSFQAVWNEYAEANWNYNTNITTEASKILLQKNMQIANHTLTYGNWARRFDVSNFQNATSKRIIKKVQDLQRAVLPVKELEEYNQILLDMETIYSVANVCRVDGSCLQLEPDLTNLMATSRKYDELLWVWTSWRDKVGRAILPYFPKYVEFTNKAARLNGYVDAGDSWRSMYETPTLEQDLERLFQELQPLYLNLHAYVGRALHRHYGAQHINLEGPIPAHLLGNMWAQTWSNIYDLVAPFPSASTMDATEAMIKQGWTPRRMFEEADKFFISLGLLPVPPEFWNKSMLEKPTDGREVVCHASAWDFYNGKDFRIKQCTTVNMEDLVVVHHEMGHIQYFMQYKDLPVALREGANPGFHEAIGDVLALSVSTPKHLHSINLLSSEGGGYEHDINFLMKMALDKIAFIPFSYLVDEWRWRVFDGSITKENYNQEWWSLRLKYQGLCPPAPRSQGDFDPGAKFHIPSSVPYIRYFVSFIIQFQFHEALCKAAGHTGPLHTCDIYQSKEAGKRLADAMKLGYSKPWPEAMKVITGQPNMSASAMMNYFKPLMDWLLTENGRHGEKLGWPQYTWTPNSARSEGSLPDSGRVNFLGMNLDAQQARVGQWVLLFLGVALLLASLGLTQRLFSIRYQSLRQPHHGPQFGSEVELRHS

| Molecule | Inhibitory percentage, HepG2 (HepG2 cells) [%] | Inhibitory percentage, CaCO2 (CaCO2 cells) [%] | Antioxidant, DPPH [1] | Antioxidant, ABTS [2] | Inhibitory percentage, SiHa (SiHa cells) [%] | Inhibitory percentage, Vero (Vero cells) [%] | Antioxidant, FRAP [4] | Antihypertension (%): percent inhibition of ACE activity (hydrolysis of hippuryl-L-histidyl-L-leucine) at 100 µg/ml peptide [5] [%] | further results |
| --- | --- | --- | --- | --- | --- | --- | --- | --- | --- |
| APANGSAF [RB-5] | 0 | 13.21±0.04 | 374.62±13.56 µg ascorbic acid equivalent | 412.60±0.71 µg ascorbic acid equivalent | 8.75±0.00 | 0 | 87.48±0.20 µg ascorbic acid equivalent | – | Inhibitory percentage, NCI-H460 (NCI-H460 cells; n = 3, SD): 10.58±0.03%; Inhibitory percentage, MCF-7 (MCF-7 cells; n = 3): 0%; Antihypertension (%), percentage inhibition of ACE ([3]; SD): 43.33±0.33%; Inhibitory percentage, SW620 (SW620 cells; n = 3, SD): 3.58±0.04% |
| DHPTGGL [RB-2] | 0 | 8.99±0.08 | 239.10±0.83 µg ascorbic acid equivalent | 284.62±0.75 µg ascorbic acid equivalent | 10.28±0.02 | 0 | 59.87±0.06 µg ascorbic acid equivalent | – | Inhibitory percentage, NCI-H460 (NCI-H460 cells; n = 3): 0%; Inhibitory percentage, MCF-7 (MCF-7 cells; n = 3): 0%; Antihypertension (%), percentage inhibition of ACE [3]: 0%; Inhibitory percentage, SW620 (SW620 cells; n = 3): 0% |
| GSEIRSTSDDVL [RB-4] | 0 | 11.27±0.07 | 424.61±1.53 µg ascorbic acid equivalent | 539.58±3.43 µg ascorbic acid equivalent | 11.45±0.00 | 0 | 128.47±0.86 µg ascorbic acid equivalent | – | Inhibitory percentage, NCI-H460 (NCI-H460 cells; n = 3, SD): 6.08±0.01%; Inhibitory percentage, MCF-7 (MCF-7 cells; n = 3): 0%; Antihypertension (%), percentage inhibition of ACE ([3]; SD): 13.33±0.60%; Inhibitory percentage, SW620 (SW620 cells; n = 3): 0% |
| LIIPATSTKFL [RB-8] | – | 20.79±1.23 | – | – | – | – | – | – | – |
| NLRKLKRL [RB-1] | 0 | 7.33±0.02 | 373.74±12.01 µg ascorbic acid equivalent | 367.86±25.39 µg ascorbic acid equivalent | 4.64±0.02 | 0 | 189.53±6.59 µg ascorbic acid equivalent | – | Inhibitory percentage, NCI-H460 (NCI-H460 cells; n = 3, SD): 5.40±0.01%; Inhibitory percentage, MCF-7 (MCF-7 cells; n = 3, SD): 2.10±0.00%; Antihypertension (%), percentage inhibition of ACE ([3]; SD): 20.00±2.82%; Inhibitory percentage, SW620 (SW620 cells; n = 3): 0% |
| DHPTGGL [RB-2] | – | – | – | – | – | – | – | 0 | – |
| RRLRILL [RB-6] | – | – | – | – | – | – | – | 46.7 | – |
| LIIPATSTKFL [RB-8] | – | – | – | – | – | – | – | 16.7 | – |
| NLRKLKRL [RB-1] | – | – | – | – | – | – | – | 20 | – |
| APANGSAF [RB-5] | – | – | – | – | – | – | – | 43.3 | – |
| RGSKQRQKRQW [RB-7] | – | – | – | – | – | – | – | 60 | – |
| SPTPPKNVPF [RB-3] | – | – | – | – | – | – | – | 20 | – |
| GSEIRSTSDDVL [RB-4] | – | – | – | – | – | – | – | 13.3 | – |
